Results as given in patent publication US20160264636A1, “PEPTIDE INHIBITORS OF TEAD/YAP-TAZ INTERACTION” (UNIVERSITE PIERRE ET MARIE CURIE (PARIS 6), priority 2013, published 2016).
Where two headings read alike, the source gives them in different places. Peptide text beside a SMILES is read from it.

Legend:
[1] = tested on: MP41 uveal melanoma cells; assay: MTT cytotoxicity assay, MP41; assay type: cell-based, human; details: MP41; 100 μM; 72 h
Protocol: (§1) The cytotoxicity of penetrating peptides or chemotherapeutic agents, alone or in combination, was evaluated by the (3-(4,5-dimethylthiazol-2-yl)-2,5-diphenyltetrazolium bromide) tetrazolium (MTT) reduction assay. The cells were seeded in 96-well plates (100 μL/well) at a cell density defined from growth curves. After 24 hours of incubation, cells were treated with the peptides for 72 hours. The wells were rinsed two times with RPMI. After washing, 10 μl of stock MTT solution (5 mg/ml; MTT (SIGMA #M-2128) in PBS Dubecco's 1× without Ca^2+ and Mg^2+) was added to a final volume of 100 μl of culture medium. Cell lines were incubated for additional 4 hours at 37° C. under humid atmosphere with 5% (v/v) CO2. The formation of blue formazan crystals was detected under a microscope. An equal volume of 10% SDS (MERCK, #926.238) in 10 mM HCl was added to each well and the plate was placed in the incubator overnight to dissolve formazan crystals. The plates were mixed to ensure complete solubilisation of formazan crystals and absorbance was measured at 570 nm and 620 nm. The percentage of viable cells was estimated using the formula: % cell viability=ΔOD(570-620) treated/ΔOD(570-620)control×100.
MP41, MP46 and MP66 cell lines come from uveal melanoma patient derived xenografts. They were cultured in RPMI medium supplemented with 20% of FCS.
All the uveal melanoma cell lines were treated for 72 h with different concentrations of the peptides TAZ, “LV”, YAP and TEAD (SEQ ID NO: 35, 36, 37). Cytotoxicity was analysed as described in example 2. […] The best effect was shown in MP41 with about 40% cytotoxicity at 100 μM.

HBEC RasV12 cells = assay type: cell-based; details: for Letal Dose (μM) LD25: Table II, 72 h, MTT, 25% cell death
Protocol: (§2) H1650, H1975, H1299, A549 cell lines were cultured in DMEM medium supplemented with 10% of FCS. HBEC cell lines (wt and Ras V12) were cultured in KSFM supplemented with growth factors. All the cell lines come from human non small cell lung cancer (NSCLC).
as §1
(§3) Cell-penetrating peptides (CPPs) comprising the binding site of TEAD to TAZ or YAP or of YAP to TEAD (TAZ, TEAD and YAP peptides, respectively) were chemically synthesized. The effect of the peptides on cell viability was assayed on several human non small cell lung cancer (NSCLC) cell lines. All the lung cancer cell lines were treated for 72 h with different peptide concentrations. Cytotoxicity was analysed as described in Materials and Methods.

A549 cells = assay type: cell-based; details: for Letal Dose (μM) LD25: Table II, 72 h, MTT, 25% cell death
Protocol: as §2, §1, §3

H1299 cells = assay type: cell-based; details: for Letal Dose (μM) LD25: Table II, 72 h, MTT, 25% cell death
Protocol: as §2, §1, §3

H1650 cells = assay type: cell-based; details: for Letal Dose (μM) LD25: Table II, 72 h, MTT, 25% cell death
Protocol: as §2, §1, §3

HBEC wt cells = assay type: cell-based; details: for Letal Dose (μM) LD25: Table II, HBEC WT, 72 h, MTT, 25% cell death; for Cell viability (%): HBEC wt
Protocol: as §2, §1, §3

H1975 cells = assay type: cell-based; details: for Letal Dose (μM) LD25: Table II, 72 h, MTT, 25% cell death
Protocol: as §2, §1, §3

IGROV-1 cells = assay: MTT cytotoxicity assay, IGROV; assay type: cell-based; details: for Letal Dose (μM) LD25: Table VIII, 72 h, MTT, 25% cell death; for Cell viability (%): Table IX
Protocol: as §1
(§4) ES2, IGROV-1, OVCAR8 and SKOV3 cell lines come from human ovarian cancer.
as §3, with “ovarian” for “non small cell lung”, “cancer” for “cancer (NSCLC)”, “ovarian” for “lung”, “example 2.” for “Materials and Methods.”

OVCAR8 cells = assay: MTT cytotoxicity assay, OVCAR8; assay type: cell-based; details: for Letal Dose (μM) LD25: Table VIII, 72 h, MTT, 25% cell death; for Cell viability (%): Table IX
Protocol: as §1, §4
as §3, with “ovarian” for “non small cell lung”, “cancer” for “cancer (NSCLC)”, “ovarian” for “lung”, “example 2.” for “Materials and Methods.”

ES2 cells = assay: MTT cytotoxicity assay, ES2; assay type: cell-based; details: for Letal Dose (μM) LD25: Table VIII, 72 h, MTT, 25% cell death; for Cell viability (%): Table IX
Protocol: as §1, §4
as §3, with “ovarian” for “non small cell lung”, “cancer” for “cancer (NSCLC)”, “ovarian” for “lung”, “example 2.” for “Materials and Methods.”

SKOV3 cells = assay: MTT cytotoxicity assay, SKOV3; assay type: cell-based; details: for Letal Dose (μM) LD25: Table VIII, 72 h, MTT, 25% cell death; for Cell viability (%): Table IX
Protocol: as §1, §4
as §3, with “ovarian” for “non small cell lung”, “cancer” for “cancer (NSCLC)”, “ovarian” for “lung”, “example 2.” for “Materials and Methods.”

[2] = tested on: colon, lung and ovarian cancer cell lines; assay: MTT cytotoxicity, comparison of TAZ LV and VL peptides; assay type: cell-based, human; details: all lines tested except ES2: HCT116, HT29, SW480, OVCAR8, A549, HT1975; 72 h; 0.1 to 100 μM (FIGS. 5 to 8)
Protocol: as §1

[3] = Table V, drug alone vs its vehicle (Glucose 5% or NaCl)
[4] = Table VI, peptide alone vs HPCD 10%
[5] = Table III, drug alone vs its vehicle (HPCD10%, NaCl or Glucose 5%)
[6] = Table IV, drug alone vs its vehicle (Glucose 5% or NaCl)

Compound	Letal Dose (μM) LD25 (HBEC RasV12 cells) [µM]	Cell viability (%) (HBEC RasV12 cells; [3])	Letal Dose (μM) LD25 (A549 cells) [µM]	Cell viability (%) (A549 cells; [3])	Letal Dose (μM) LD25 (H1299 cells) [µM]	Cell viability (%) (H1299 cells; [3])	Letal Dose (μM) LD25 (H1650 cells) [µM]	Cell viability (%) (H1650 cells; [3])	Letal Dose (μM) LD25 (HBEC wt cells) [µM]	Cell viability (%) (HBEC wt cells; [3])	Letal Dose (μM) LD25 (H1975 cells) [µM]	Cell viability (%) (H1975 cells; [3])	Letal Dose (μM) LD25 (IGROV-1 cells) [µM]	Letal Dose (μM) LD25 (OVCAR8 cells) [µM]	Letal Dose (μM) LD25 (ES2 cells) [µM]	Letal Dose (μM) LD25 (SKOV3 cells) [µM]	Cell viability (%) (HBEC RasV12 cells; [5])	Cell viability (%) (A549 cells; [5])	Cell viability (%) (H1299 cells; [5])	Cell viability (%) (H1650 cells; [5])	also measured
CC[C@H](C)[C@H](NC(=O)[C@H](CCCCN)NC(=O)[C@H](CCCCN)NC(=O)[C@H](CCCCN)NC(=O)[C@H](CCCCN)NC(=O)[C@@H](N)C(C)C)C(=O)N[C@@H](CCCCN)C(=O)N[C@@H](C)C(=O)N[C@@H](CCC(=O)O)C(=O)N[C@H](C(=O)N[C@@H](CCCCN)C(=O)N[C@H](C(=O)N[C@@H](CCCCN)C(=O)N[C@H](C(=O)N[C@@H](C)C(=O)N[C@@H](CC(N)=O)C(=O)N[C@H](C(=O)N1CCC[C@H]1C(=O)N[C@@H](CCC(N)=O)C(=O)N[C@H](C(=O)N[C@H](C(=O)N1CCC[C@H]1C(=O)N[C@@H](CCSC)C(=O)N[C@@H](CCCNC(=N)N)C(=O)N[C@@H](CC(C)C)C(=O)N[C@@H](CCCNC(=N)N)C(=O)N[C@@H](CCCCN)C(=O)N[C@@H](CC(C)C)C(=O)N1CCC[C@H]1C(=O)N[C@@H](CC(=O)O)C(=O)O)C(C)C)[C@@H](C)O)C(C)C)[C@@H](C)O)[C@@H](C)CC)[C@@H](C)CC [YAP] (H-VKKKKIKAEIKIKTANVPQTVPMRLRKLPD-OH)	>100	−72.88	>100	−23.19	>100	−40.21	>100	−45.14	>100	−60.73	>100	−26.22	>100	>100	>100	>100	–	–	–	–	cytotoxicity [1]: about 40%; Cell viability (%) (HBEC RasV12 cells; [4]): −44.98%; Cell viability (%) (A549 cells; [4]): −10.25%; Cell viability (%) (H1299 cells; [4]): −13.8%; Cell viability (%) (H1650 cells; [4]): −4.488%; Cell viability (%) (HBEC wt cells; [4]): −41.35%; Cell viability (%) (H1975 cells; [4]): −5.766%
VKKKKIKAEIKIPPHAFFVLKFWADLNWGPSGEEAGAG [TAZ]	2.5	–	6	–	5	–	>100	–	2.5	–	3	–	5	9	6	60	−89.9	−38	−24.71	−30.68	Cell viability (%) (HBEC RasV12 cells; [4]): −53.02%; Cell viability (%) (A549 cells; [4]): −7.835%; Cell viability (%) (H1299 cells; [4]): −8.413%; Cell viability (%) (H1650 cells; [4]): −2.439%; Cell viability (%) (HBEC wt cells; [5]): −58.16%; Cell viability (%) (HBEC wt cells; [4]): −66.15%; Cell viability (%) (H1975 cells; [5]): −49.35%; Cell viability (%) (H1975 cells; [4]): −13.21%; Cell viability (%) (IGROV-1 cells; TAZ 10 μM vs HPCD 10%): −39.39%; Cell viability (%) (IGROV-1 cells; TAZ 25 μM vs HPCD 10%): −34%; Cell viability (%) (OVCAR8 cells; TAZ 10 μM vs HPCD 10%): −18.7%; Cell viability (%) (OVCAR8 cells; TAZ 25 μM vs HPCD 10%): −24.69%; Cell viability (%) (ES2 cells; TAZ 10 μM vs HPCD 10%): −46.33%; Cell viability (%) (ES2 cells; TAZ 25 μM vs HPCD 10%): −57.44%; Cell viability (%) (SKOV3 cells; TAZ 10 μM vs HPCD 10%): −26.64%; Cell viability (%) (SKOV3 cells; TAZ 25 μM vs HPCD 10%): −36.09%
C#Cc1cccc(Nc2ncnc3cc(OCCOC)c(OCCOC)cc23)c1 [Tarceva, Erlotinib]	0.001	0.2682	0	−67.3	>100	−61.14	0.4	−53.13	0.04	−37.28	3	−56.6	–	–	–	–	−4.596	−52.89	−39.83	−47.11	Cell viability (%) (HBEC RasV12 cells; [6]): −25.67%; Cell viability (%) (A549 cells; [6]): −60.75%; Cell viability (%) (H1299 cells; [6]): −60.68%; Cell viability (%) (H1650 cells; [6]): −38.72%; Cell viability (%) (HBEC wt cells; [5]): −15.63%; Cell viability (%) (HBEC wt cells; [6]): −55.15%; Cell viability (%) (H1975 cells; [5]): −49.68%; Cell viability (%) (H1975 cells; [6]): −77.63%
VKKKKIKAEIKI-PPHAFFVLKFWADLNWGPSGEEAGAG (VKKKKIKAEIKIPPHAFFVLKFWADLNWGPSGEEAGAG) [TAZ “VL”]	–	–	–	–	–	–	–	–	–	–	–	–	–	–	–	–	–	–	–	–	effect on cellular viability, TAZ “LV” compared with TAZ “VL” [2]: same effect
N.N.[Cl][Pt][Cl] [Cisplatin]	1	−89.58	3	−57.64	30	−95.42	2	−83.01	2	−77.96	30	−97.93	–	–	–	–	−44.42	−37.43	−57.12	−55.41	Cell viability (%) (HBEC RasV12 cells; [6]): −55.51%; Cell viability (%) (A549 cells; [6]): −60.45%; Cell viability (%) (H1299 cells; [6]): −73.62%; Cell viability (%) (H1650 cells; [6]): −77.26%; Cell viability (%) (HBEC wt cells; [5]): −21.45%; Cell viability (%) (HBEC wt cells; [6]): −77.04%; Cell viability (%) (H1975 cells; [5]): −76.57%; Cell viability (%) (H1975 cells; [6]): −85.91%
CC(=O)O[C@H]1C(=O)[C@@]2(C)[C@H]([C@H](OC(=O)c3ccccc3)[C@]3(O)C[C@H](OC(=O)[C@H](O)[C@@H](NC(=O)c4ccccc4)c4ccccc4)C(C)=C1C3(C)C)[C@]1(OC(C)=O)CO[C@@H]1C[C@@H]2O [Paclitaxel]	–	–	–	–	–	–	–	–	–	–	–	–	0.002	0.003	0.004	0.005	–	–	–	–	–
CC(=O)O[C@@]12CO[C@@H]1C[C@H](O)[C@@]1(C)C(=O)[C@H](O)C3=C(C)[C@@H](OC(=O)[C@H](O)[C@@H](NC(=O)OC(C)(C)C)c4ccccc4)C[C@@](O)([C@@H](OC(=O)c4ccccc4)[C@H]21)C3(C)C [Docetaxel]	0.0002	−95.93	0.0002	−39.31	0.007	−89.07	0.0001	0.1681	0.0002	−2.578	0.0008	−79.23	–	–	–	–	15.19	11.73	−10.53	23.41	Cell viability (%) (HBEC RasV12 cells; [6]): −88.64%; Cell viability (%) (A549 cells; [6]): −49.02%; Cell viability (%) (H1299 cells; [6]): −72.38%; Cell viability (%) (H1650 cells; [6]): −41.32%; Cell viability (%) (HBEC wt cells; [5]): 25.93%; Cell viability (%) (HBEC wt cells; [6]): −54.02%; Cell viability (%) (H1975 cells; [5]): 5.931%; Cell viability (%) (H1975 cells; [6]): −92.17%
N.N.O=C([O-])C1(C(=O)[O-])CCC1.[Pt+2] [Carboplatin]	–	–	–	–	–	–	–	–	–	–	–	–	30	30	10	18	–	–	–	–	–
